According to publication PMC10318822, “Phase 1 dose-escalation study to evaluate the safety, tolerability, pharmacokinetics, and anti-tumor activity of FCN-159 in adults with neurofibromatosis type 1-related unresectable plexiform neurofibromas” (BMC Medicine, 2023):
Several values for one entry are separate records, joined by “and”; a condition that tells them apart may be missing. Equal values may be shown once.

Test system: adult patients with NF1-related PN
Assay: Phase I dose-escalation: DLT, MTD, RP2D and drug-related TEAEs (CTCAE v5.0)
Description: This is a multicenter, open-label, single-arm, non-randomized, phase I dose-escalation trial to evaluate the safety, tolerability, pharmacokinetic (PK), and anti-tumor activity of orally administered FCN-159 in adult patients with NF1 (NCT04954001). Phase I commenced with dose escalation in adult patients following a standard 3 + 3 design (Supplementary Table S1) to determine the maximum tolerated dose (MTD) of FCN-159 administered daily under fasting conditions (defined as no food or drink 1 h before and 2 h after each dose) in 28-day cycles. Study drug was dispensed at the study site and patient adherence was monitored by the records of drug dispensation and return. Patients were on treatment until PD, death, patient's voluntary withdrawal from study treatment, or study termination. The study was followed for 2 years after the last patient in. The starting dose was 4 mg, escalating in cohorts of at least three evaluable patients at 6 mg, 8 mg, and 12 mg until the MTD was determined. The starting dose in this study was determined based on available data from a phase 1a, first-in-human study of FCN-159 in patients with advanced NRAS ^mut+ melanoma at the time of study design. […] Dose expansion at a likely RP2D level enrolled approximately six patients. The highest dose level with a dose-limiting toxicity (DLT) incidence rate ≤ 33% (0/3 or 1/6 patients) was to be considered the MTD. If patients experienced grade ≥ 3 and/or unacceptable toxic events that were considered as at least possibly related to the study treatment, the study treatment was discontinued and supportive treatment was given in accordance with local treatment routines. If the toxicity returned to grade ≤ 2 within 28 days after the occurrence, and there was no progression on patients’ conditions or the investigator believed that patients could benefit from the study treatment, the original dose could be maintained or reduced after discussion with medical monitor. After completion of the dose escalation part of the study, PK, efficacy, safety, and tolerability data were analyzed to select the RP2D.
Primary endpoints of the study were the DLT incidence rate, MTD, and RP2D. Secondary endpoints included other safety assessments, imaging tumor response (complete response [CR], PR, stable disease [SD], or progressive disease [PD]), and PK parameters of FCN-159. Adverse events were graded per CTCAE v5.0.
All patients underwent a complete medical history, physical examination, Eastern Cooperative Oncology Group (ECOG) assessment, and laboratory analysis of test results. Drug-related TEAEs, serious adverse events (SAEs), TEAEs of grade ≥ 3 toxicity, and TEAEs leading to drug discontinuation were reviewed on an ongoing basis. Efficacy was assessed by radiologic scans and clinical assessment. Tumor assessments per Response Evaluation in Neurofibromatosis Schwannomatosis criteria were performed by investigators using MRI volumetric analysis every 4 cycles within the first 2 years (± 7 days) and every 6 cycles after 2 years (± 14 days) until PD, death, patient's voluntary withdrawal from study treatment, or study termination. MRI sequences of […], T1- and T2-weighted sequences were chosen and the software of Extended Brilliance Workspace, SIGNA Premier and uExceed were used for MRI volumetric analysis. The same software was used for all tumor assessments at baseline and subsequent assessed timepoints of the same patient. Pain was assessed by an 11-point numerical rating scale (NRS-11).
The sample size for the dose-escalation study was estimated to be 24 based on the 3 + 3 method. Safety was analyzed in patients who received at least one dose of FCN-159 and had at least one safety assessment. DLT was assessed in the DLT analysis set, defined as patients who were enrolled in the dose-escalation study and met the DLT evaluation criteria.

Cn1c(=O)c(F)c(Nc2ccc(I)cc2F)c2c(=O)n(C3CC3)nc(-c3cccc(NS(=O)(=O)C4CC4)c3)c21 [FCN-159]
1 (25.0) n (%): Drug-related TEAE: Amylase increased (12 mg (N = 4)) | Drug-related TEAE: Blood lactate dehydrogenase increased (12 mg (N = 4)) | Drug-related TEAE: Blood pressure increased (12 mg (N = 4)) | Drug-related TEAE: Hyperlipidemia (12 mg (N = 4)) | Drug-related TEAE: Mitral valve incompetence (12 mg (N = 4)) | Drug-related TEAE: Sinusitis (12 mg (N = 4))
16.7% and 12.5%: Patients with DLT (grade 3 folliculitis) (8 mg, 1 of 8 patients)
3 (37.5) n (%): Drug-related TEAE: Paronychia (8 mg (N = 8)) | Drug-related TEAE: Stomatitis (8 mg (N = 8))
0 n (%): Drug-related TEAE: Oedema peripheral (8 mg (N = 8)) | Drug-related TEAE: Pain in extremity (8 mg (N = 8)) | Drug-related TEAE: QRS axis abnormal (8 mg (N = 8)) | Drug-related TEAE: Sinus arrhythmia (8 mg (N = 8)) | Drug-related TEAE: Sinus bradycardia (8 mg (N = 8)) | Drug-related TEAE: Sinusitis (8 mg (N = 8)) | Drug-related TEAE: Supraventricular extrasystoles (8 mg (N = 8)) | Drug-related TEAE: Total bile acids increased (8 mg (N = 8)) | Drug-related TEAE: Urinary tract infection (8 mg (N = 8)) | Drug-related TEAE: Urticaria (8 mg (N = 8)) | Drug-related TEAE: Visual acuity reduced (8 mg (N = 8)) | Drug-related TEAE: Abdominal pain (12 mg (N = 4)) | Drug-related TEAE: Acne (12 mg (N = 4)) | Drug-related TEAE: Acne pustular (12 mg (N = 4)) | Drug-related TEAE: Alanine aminotransferase increased (12 mg (N = 4)) | Drug-related TEAE: Albumin globulin ratio decreased (12 mg (N = 4)) | Drug-related TEAE: Anemia (12 mg (N = 4)) | Drug-related TEAE: Aortic dilatation (12 mg (N = 4)) | Drug-related TEAE: Aspartate aminotransferase increased (12 mg (N = 4)) | Drug-related TEAE: Asthenia (12 mg (N = 4)) | Drug-related TEAE: Beta globulin decreased (12 mg (N = 4)) | Drug-related TEAE: Beta globulin increased (12 mg (N = 4)) | Drug-related TEAE: Blood bilirubin increased (12 mg (N = 4)) | Drug-related TEAE: Blood creatine phosphokinase increased (12 mg (N = 4)) | Drug-related TEAE: Blood urea increased (12 mg (N = 4)) | Drug-related TEAE: Blood uric acid increased (12 mg (N = 4)) | Drug-related TEAE: Breath odor (12 mg (N = 4)) | Drug-related TEAE: Capillary disorder (12 mg (N = 4)) | Drug-related TEAE: Decreased appetite (12 mg (N = 4)) | Drug-related TEAE: Dermatitis acneiform (12 mg (N = 4)) | Drug-related TEAE: Diarrhea (12 mg (N = 4)) | Drug-related TEAE: Drug eruption (12 mg (N = 4)) | Drug-related TEAE: Dyslipidemia (12 mg (N = 4)) | Drug-related TEAE: Ejection fraction decreased (12 mg (N = 4)) | Drug-related TEAE: Electrocardiogram QT prolonged (12 mg (N = 4)) | Drug-related TEAE: Epistaxis (12 mg (N = 4)) | Drug-related TEAE: Functional gastrointestinal disorder (12 mg (N = 4)) | Drug-related TEAE: Gamma-glutamyltransferase increased (12 mg (N = 4)) | Drug-related TEAE: Gingival pain (12 mg (N = 4)) | Drug-related TEAE: Hypertension (12 mg (N = 4)) | Drug-related TEAE: Hypoalbuminemia (12 mg (N = 4)) | Drug-related TEAE: Hypocalcemia (12 mg (N = 4)) | Drug-related TEAE: Hypophosphatemia (12 mg (N = 4)) | Drug-related TEAE: Hypoproteinemia (12 mg (N = 4)) | Drug-related TEAE: Immunoglobulins increased (12 mg (N = 4)) | Drug-related TEAE: Impetigo (12 mg (N = 4)) | Drug-related TEAE: Left atrial enlargement (12 mg (N = 4)) | Drug-related TEAE: Lipoprotein abnormal (12 mg (N = 4)) | Drug-related TEAE: Malaise (12 mg (N = 4)) | Drug-related TEAE: Muscular weakness (12 mg (N = 4)) | Drug-related TEAE: Oedema peripheral (12 mg (N = 4)) | Drug-related TEAE: Pain in extremity (12 mg (N = 4)) | Drug-related TEAE: Paronychia (12 mg (N = 4)) | Drug-related TEAE: Prealbumin decreased (12 mg (N = 4)) | Drug-related TEAE: Protein urine present (12 mg (N = 4)) | Drug-related TEAE: Pruritus (12 mg (N = 4)) | Drug-related TEAE: Rash (12 mg (N = 4)) | Drug-related TEAE: Sinus arrhythmia (12 mg (N = 4)) | Drug-related TEAE: Sinus bradycardia (12 mg (N = 4)) | Drug-related TEAE: Skin exfoliation (12 mg (N = 4)) | Drug-related TEAE: Specific gravity urine increased (12 mg (N = 4)) | Drug-related TEAE: Stomatitis (12 mg (N = 4)) | Drug-related TEAE: Supraventricular extrasystoles (12 mg (N = 4)) | Drug-related TEAE: Total bile acids increased (12 mg (N = 4)) | Drug-related TEAE: Tricuspid valve incompetence (12 mg (N = 4)) | Drug-related TEAE: Urinary occult blood positive (12 mg (N = 4)) | Drug-related TEAE: Urinary sediment present (12 mg (N = 4)) | Drug-related TEAE: Urinary tract infection (12 mg (N = 4)) | Drug-related TEAE: Urine ketone body present (12 mg (N = 4)) | Drug-related TEAE: Urobilinogen urine increased (12 mg (N = 4))
four: Subjects with grade 3 AEs (12 mg)
2 (50.0) n (%): Drug-related TEAE: Blood alkaline phosphatase increased (12 mg (N = 4)) | Drug-related TEAE: Constipation (12 mg (N = 4)) | Drug-related TEAE: Electrocardiogram abnormal (12 mg (N = 4)) | Drug-related TEAE: Menstrual disorder (12 mg (N = 4))
8 (100) n (%): Subjects with any drug-related TEAE (8 mg (N = 8))
1 (12.5) n (%): Drug-related TEAE: Mouth ulceration (8 mg (N = 8)) | Drug-related TEAE: Muscular weakness (8 mg (N = 8)) | Drug-related TEAE: Prealbumin decreased (8 mg (N = 8)) | Drug-related TEAE: Pruritus (8 mg (N = 8)) | Drug-related TEAE: Rash (8 mg (N = 8)) | Drug-related TEAE: Skin exfoliation (8 mg (N = 8)) | Drug-related TEAE: Urinary sediment present (8 mg (N = 8)) | Drug-related TEAE: Urobilinogen urine increased (8 mg (N = 8)) | Drug-related TEAE: Vision blurred (8 mg (N = 8)) | Drug-related TEAE: pH urine increased (8 mg (N = 8))
2 (25.0) n (%): Drug-related TEAE: Protein urine present (8 mg (N = 8)) | Drug-related TEAE: Specific gravity urine increased (8 mg (N = 8)) | Drug-related TEAE: Tricuspid valve incompetence (8 mg (N = 8)) | Drug-related TEAE: Urinary occult blood positive (8 mg (N = 8)) | Drug-related TEAE: Urine ketone body present (8 mg (N = 8)) | Drug-related TEAE: pH urine decreased (8 mg (N = 8))
3 (75.0) n (%): Drug-related TEAE: Alopecia (12 mg (N = 4)) | Drug-related TEAE: Mouth ulceration (12 mg (N = 4)) | Drug-related TEAE: QRS axis abnormal (12 mg (N = 4))
4 (100) n (%): Drug-related TEAE: Blood fibrinogen increased (12 mg (N = 4)) | Drug-related TEAE: Folliculitis (12 mg (N = 4))
